Experimental data taken from patent publication US7118895B2, “Process for producing aglycon by using diglycosidase and flavor-improved food containing the aglycon and converting agent to be used in the process” (Amano Enzyme Inc., priority 2000, dated 2006).

System: Crude diglycosidase
Test: Examination of substrate concentration in the conversion into isoflavone aglycons by diglycosidase using soybean materials;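 also: percent of the isoflavone family total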
Type: biochemical, Penicillium multicolor IAM7153
Method in brief: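 Reaction at 55° C, shaken, pH 4.0 (20 mM acetate), using crude diglycosidase from a 1.88 AU/mL enzyme solution on soy flour, soymilk, defatted soybean or soy protein concentrate at 2, 5, 10, 20 or 30% (w/v). Isoflavone aglycons quantified by HPLC of ethanol extracts at 0, 1, 3, 6 h.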

Compound: COc1cc2c(=O)c(-c3ccc(O)cc3)coc2cc1O[C@@H]1O[C@H](CO)[C@@H](O)[C@H](O)[C@H]1O [glycitin]
- Decomposition efficiency: ratio of each glycoside/aglycon within its isoflavone family (concentrated soybean protein, substrate concentration 2%, heat treatment of enzyme no, reaction time 0 h): 52.2%
- Decomposition efficiency: ratio of each glycoside/aglycon within its isoflavone family (concentrated soybean protein, substrate concentration 2%, heat treatment of enzyme no, reaction time 1 h): not detected
- Decomposition efficiency: ratio of each glycoside/aglycon within its isoflavone family (concentrated soybean protein, substrate concentration 2%, heat treatment of enzyme no, reaction time 3 h): not detected
- Decomposition efficiency: ratio of each glycoside/aglycon within its isoflavone family (concentrated soybean protein, substrate concentration 2%, heat treatment of enzyme no, reaction time 6 h): not detected
- Decomposition efficiency: ratio of each glycoside/aglycon within its isoflavone family (concentrated soybean protein, substrate concentration 2%, heat treatment of enzyme yes, reaction time 6 h): 53.4%
- Decomposition efficiency: ratio of each glycoside/aglycon within its isoflavone family (concentrated soybean protein, substrate concentration 5%, heat treatment of enzyme no, reaction time 0 h): 52.9%
- Decomposition efficiency: ratio of each glycoside/aglycon within its isoflavone family (concentrated soybean protein, substrate concentration 5%, heat treatment of enzyme no, reaction time 1 h): not detected
- Decomposition efficiency: ratio of each glycoside/aglycon within its isoflavone family (concentrated soybean protein, substrate concentration 5%, heat treatment of enzyme no, reaction time 3 h): not detected
- Decomposition efficiency: ratio of each glycoside/aglycon within its isoflavone family (concentrated soybean protein, substrate concentration 5%, heat treatment of enzyme no, reaction time 6 h): not detected
- Decomposition efficiency: ratio of each glycoside/aglycon within its isoflavone family (concentrated soybean protein, substrate concentration 5%, heat treatment of enzyme yes, reaction time 6 h): 54.0%
- Decomposition efficiency: ratio of each glycoside/aglycon within its isoflavone family (concentrated soybean protein, substrate concentration 10%, heat treatment of enzyme no, reaction time 0 h): 52.9%
- Decomposition efficiency: ratio of each glycoside/aglycon within its isoflavone family (concentrated soybean protein, substrate concentration 10%, heat treatment of enzyme no, reaction time 1 h): 1.6%
- Decomposition efficiency: ratio of each glycoside/aglycon within its isoflavone family (concentrated soybean protein, substrate concentration 10%, heat treatment of enzyme no, reaction time 3 h): not detected
- Decomposition efficiency: ratio of each glycoside/aglycon within its isoflavone family (concentrated soybean protein, substrate concentration 10%, heat treatment of enzyme no, reaction time 6 h): not detected
- Decomposition efficiency: ratio of each glycoside/aglycon within its isoflavone family (concentrated soybean protein, substrate concentration 10%, heat treatment of enzyme yes, reaction time 6 h): 53.4%
- Decomposition efficiency: ratio of each glycoside/aglycon within its isoflavone family (concentrated soybean protein, substrate concentration 20%, heat treatment of enzyme no, reaction time 0 h): 53.1%
- Decomposition efficiency: ratio of each glycoside/aglycon within its isoflavone family (concentrated soybean protein, substrate concentration 20%, heat treatment of enzyme no, reaction time 1 h): 13.2%
- Decomposition efficiency: ratio of each glycoside/aglycon within its isoflavone family (concentrated soybean protein, substrate concentration 20%, heat treatment of enzyme no, reaction time 3 h): not detected
- Decomposition efficiency: ratio of each glycoside/aglycon within its isoflavone family (concentrated soybean protein, substrate concentration 20%, heat treatment of enzyme no, reaction time 6 h): not detected
- Decomposition efficiency: ratio of each glycoside/aglycon within its isoflavone family (concentrated soybean protein, substrate concentration 20%, heat treatment of enzyme yes, reaction time 6 h): 52.8%
- Decomposition efficiency: ratio of each glycoside/aglycon within its isoflavone family (concentrated soybean protein, substrate concentration 30%, heat treatment of enzyme no, reaction time 0 h): 57.5%
- Decomposition efficiency: ratio of each glycoside/aglycon within its isoflavone family (concentrated soybean protein, substrate concentration 30%, heat treatment of enzyme no, reaction time 1 h): 2.0%
- Decomposition efficiency: ratio of each glycoside/aglycon within its isoflavone family (concentrated soybean protein, substrate concentration 30%, heat treatment of enzyme no, reaction time 3 h): not detected
- Decomposition efficiency: ratio of each glycoside/aglycon within its isoflavone family (concentrated soybean protein, substrate concentration 30%, heat treatment of enzyme no, reaction time 6 h): not detected
- Decomposition efficiency: ratio of each glycoside/aglycon within its isoflavone family (concentrated soybean protein, substrate concentration 30%, heat treatment of enzyme yes, reaction time 6 h): 58.0%
- Decomposition efficiency: ratio of each glycoside/aglycon within its isoflavone family (defatted soybean, substrate concentration 2%, heat treatment of enzyme no, reaction time 0 h): not detected
- Decomposition efficiency: ratio of each glycoside/aglycon within its isoflavone family (defatted soybean, substrate concentration 2%, heat treatment of enzyme no, reaction time 1 h): not detected
- Decomposition efficiency: ratio of each glycoside/aglycon within its isoflavone family (defatted soybean, substrate concentration 2%, heat treatment of enzyme no, reaction time 3 h): not detected
- Decomposition efficiency: ratio of each glycoside/aglycon within its isoflavone family (defatted soybean, substrate concentration 2%, heat treatment of enzyme no, reaction time 6 h): not detected
- Decomposition efficiency: ratio of each glycoside/aglycon within its isoflavone family (defatted soybean, substrate concentration 2%, heat treatment of enzyme yes, reaction time 6 h): not detected
- Decomposition efficiency: ratio of each glycoside/aglycon within its isoflavone family (defatted soybean, substrate concentration 5%, heat treatment of enzyme no, reaction time 0 h): not detected
- Decomposition efficiency: ratio of each glycoside/aglycon within its isoflavone family (defatted soybean, substrate concentration 5%, heat treatment of enzyme no, reaction time 1 h): not detected
- Decomposition efficiency: ratio of each glycoside/aglycon within its isoflavone family (defatted soybean, substrate concentration 5%, heat treatment of enzyme no, reaction time 3 h): not detected
- Decomposition efficiency: ratio of each glycoside/aglycon within its isoflavone family (defatted soybean, substrate concentration 5%, heat treatment of enzyme no, reaction time 6 h): not detected
- Decomposition efficiency: ratio of each glycoside/aglycon within its isoflavone family (defatted soybean, substrate concentration 5%, heat treatment of enzyme yes, reaction time 6 h): not detected
- Decomposition efficiency: ratio of each glycoside/aglycon within its isoflavone family (defatted soybean, substrate concentration 10%, heat treatment of enzyme no, reaction time 0 h): not detected
- Decomposition efficiency: ratio of each glycoside/aglycon within its isoflavone family (defatted soybean, substrate concentration 10%, heat treatment of enzyme no, reaction time 1 h): not detected
- Decomposition efficiency: ratio of each glycoside/aglycon within its isoflavone family (defatted soybean, substrate concentration 10%, heat treatment of enzyme no, reaction time 3 h): not detected
- Decomposition efficiency: ratio of each glycoside/aglycon within its isoflavone family (defatted soybean, substrate concentration 10%, heat treatment of enzyme no, reaction time 6 h): not detected
- Decomposition efficiency: ratio of each glycoside/aglycon within its isoflavone family (defatted soybean, substrate concentration 10%, heat treatment of enzyme yes, reaction time 6 h): not detected
- Decomposition efficiency: ratio of each glycoside/aglycon within its isoflavone family (roasted soy flour, substrate concentration 2%, heat treatment of enzyme no, reaction time 0 h): 50.2%
- Decomposition efficiency: ratio of each glycoside/aglycon within its isoflavone family (roasted soy flour, substrate concentration 2%, heat treatment of enzyme no, reaction time 1 h): not detected
- Decomposition efficiency: ratio of each glycoside/aglycon within its isoflavone family (roasted soy flour, substrate concentration 2%, heat treatment of enzyme no, reaction time 3 h): not detected
- Decomposition efficiency: ratio of each glycoside/aglycon within its isoflavone family (roasted soy flour, substrate concentration 2%, heat treatment of enzyme no, reaction time 6 h): not detected
- Decomposition efficiency: ratio of each glycoside/aglycon within its isoflavone family (roasted soy flour, substrate concentration 2%, heat treatment of enzyme yes, reaction time 6 h): 53.4%
- Decomposition efficiency: ratio of each glycoside/aglycon within its isoflavone family (roasted soy flour, substrate concentration 5%, heat treatment of enzyme no, reaction time 0 h): 54.8%
- Decomposition efficiency: ratio of each glycoside/aglycon within its isoflavone family (roasted soy flour, substrate concentration 5%, heat treatment of enzyme no, reaction time 1 h): not detected
- Decomposition efficiency: ratio of each glycoside/aglycon within its isoflavone family (roasted soy flour, substrate concentration 5%, heat treatment of enzyme no, reaction time 3 h): not detected
- Decomposition efficiency: ratio of each glycoside/aglycon within its isoflavone family (roasted soy flour, substrate concentration 5%, heat treatment of enzyme no, reaction time 6 h): not detected
- Decomposition efficiency: ratio of each glycoside/aglycon within its isoflavone family (roasted soy flour, substrate concentration 5%, heat treatment of enzyme yes, reaction time 6 h): 54.8%
- Decomposition efficiency: ratio of each glycoside/aglycon within its isoflavone family (roasted soy flour, substrate concentration 10%, heat treatment of enzyme no, reaction time 0 h): 70.3%
- Decomposition efficiency: ratio of each glycoside/aglycon within its isoflavone family (roasted soy flour, substrate concentration 10%, heat treatment of enzyme no, reaction time 1 h): not detected
- Decomposition efficiency: ratio of each glycoside/aglycon within its isoflavone family (roasted soy flour, substrate concentration 10%, heat treatment of enzyme no, reaction time 3 h): not detected
